Experimental data reported in patent US20200222347A1, “ANTIMICROBIALS AND METHODS OF USE THEREOF” (priority 2013, published 2020).
“Also recorded” adds a separate entry of the source.

Legend:
[1] = test system: Staphylococcus aureus ATCC 33591 (MRSA) biofilm; test: Drip flow biofilm reactor, PCA coated cloth and sintered mesh, Example 7; conditions: 30% concentration of PCA (FIG. 36)
[2] = test system: normal human skin bacterial resident flora; test: Human skin disinfection study, Loma Linda, Phase 1; assay type: in vivo
Protocol: A randomized double blinded study was performed at Loma Linda Medical School. It involved 4 phases over two years' time. The methods were as follows:
[…] […] The controls were Chloroprep (2% Chlorhexidine in 70% isopropyl alcohol) and Betadine (9.0% to 12.0% available iodine in water). Cultures were taken before application and 20 minutes after application. The initial harvest was by a surface swab. Application was by soaked sponge, without force or scrubbing. The second harvest was performed with the back edge of a sterile knife blade scraping with pressure in attempt to maximize the harvest from the deeper sebaceous glands and hair follicles. The specimens were placed in culture media. Bacteriology was performed at WuXiAppTec in Marrietta, Ga.

[3] = test system: P. aeruginosa (ACTA 9027); assay type: in vivo
[4] = test system: TGF-β; test: Local growth hormones in tape stripped mouse skin wound by ELISA (FIG. 11, FIG. 13, Example 5); assay type: in vivo, mice
Protocol: (§1) Four different conditions were used: mice had back skin tape stripped and the stripped site (wound) was infected with P. aeruginosa; mice had back skin stripped and were not infected, mice had taped stripped, infected and treated with PCA, mice were tape stripped, uninfected, and treated with PCA. When used, the PCA test reagent was applied topically in an aqueous solution on the stripped site at two hours and 24 hours.
(§2) The testing reagents consisted of and PCA formulated at one dose, 25 mM, in an aqueous solution. Levels of IGF-1, TGF-β, and EGF levels in the skin tissue at 48 hours were measured by ELISA. There were two control groups; the stripped skin and the stripped skin and infected.

[5] = test system: EGF; test: as above; assay type: in vivo, mice
Protocol: as §1, §2

[6] = test system: IGF-1; test: as above; assay type: in vivo, mice
Protocol: as §1, §2

[7] = test system: all bacteria tested; test: In vitro antimicrobial susceptibility, whole panel; assay type: cell-based
[8] = test system: normal human skin bacterial resident flora; test: Human skin disinfection study, Loma Linda, Phase IV; assay type: in vivo; conditions: for no growth cultures results after treatment, anaerobic / no growth cultures results after treatment, Aerobic: Phase IV, two applications
Protocol: Method: The variations in materials and methods in this phase were based upon results of the previous phases. They included changes in the solution, the method of dissolving the PCA, the timing of skin application, plus using two applications to simulate the present day recommendations of surgical skin preparation.
The method placed the 20 grams of ground PCA in sterile container with volume markers. Then added 85 ml of 91% isopropyl alcohol; warm and shake. […] A repeat of warming and shaking was instituted. The container was filled to 100 ml, warm and repeated the shaking. It took perhaps 15 to 20 minutes for the ground crystals to dissolve.
An area was marked at 4 corners on the anterior axilla area of both shoulders. There was a topical reagent application. After 5 minutes a second application was made. The control group was again Chloroprep®. The experimental side was applied with manual motion and pressure on a sterile sponge soaked with the PCA solution. The subjects put hands on head for 10 minutes and then 10 minutes of moving arms around. Culture #1 was harvested with scraping at 20 minutes post 2nd application. Subjects rested their arms at side for 40 minutes which is 60 minutes after the first application and 40 minutes after culture #1. A second culture is taken with scraping. The post application cultures were taken of each shoulder skin area with scraping with back side of a sterile surgical knife blade to maximize the yield.

[9] = test system: P. acnes 6919; test: Kirby-Bauer disc diffusion antimicrobial susceptibility; assay type: cell-based; conditions: 100 mM, carrier water
[10] = test system: C difficile; test: as above; assay type: cell-based; conditions: 100 mM, carrier water; 48 hours for anaerobes
[11] = test system: Propionibacterium acnes; test: Human skin disinfection study, species analysis of cultures; assay type: in vivo; conditions: Phase IV
Protocol: Phase 1: The active test reagent was topically applied 1.54% PCA in sterile water to the anterior shoulder region. This 1.54% solution of PCA in water was used effectively in our prior animal wound studies. The controls were Chloroprep (2% Chlorhexidine in 70% isopropyl alcohol) and Betadine (9.0% to 12.0% available iodine in water). Cultures were taken before application and 20 minutes after application. The initial harvest was by a surface swab. Application was by soaked sponge, without force or scrubbing. The second harvest was performed with the back edge of a sterile knife blade scraping with pressure in attempt to maximize the harvest from the deeper sebaceous glands and hair follicles. The specimens were placed in culture media. Bacteriology was performed at WuXiAppTec in Marrietta, Ga.
Phase 2 included eleven medical students and was same method as Phase 1. However the PCA vehicle was changed to 70% isopropyl alcohol. This allowed a higher concentration of PCA than possible in sterile water, 10%. Phase 2a: The 70% isopropyl alcohol vehicle was tested for its bactericidal properties. […] In this way it was learned what specific bacterial strains PCA could eliminate or reduce.
Cultures were stored in ice and shipped in FedEx ice box to WuXiapptec in Marietta, Ga. for aerobic and anaerobic cultures and held for 21 days. […]

[12] = test system: Pseudomonas Aeruginosa ATCC 700888 biofilm; test: Single spray on biofilm on glass slides, time study, Example 8; conditions: for log reduction: 30% PCA spray in isopropyl alcohol, vs positive control slides
[13] = test system: S. aureus 6538; test: Kirby-Bauer disc diffusion antimicrobial susceptibility; assay type: cell-based; conditions: 100 mM, carrier water; 18-24 hours for aerobes
[14] = test system: E. coli, ATTC 8739 and ATCC 43895; test: as above; assay type: cell-based; conditions: 100 mM, carrier water; 18-24 hours for aerobes
[15] = 1% PCA in water, 20 minutes after application
[16] = 25 mM at 2 and 24 hours, tape stripped and infected with P. aeruginosa, 48 hours (FIG. 13)

For `O=C(O)c1ccc(O)c(O)c1` [PCA, Protocatechuic acid], the “effectiveness against MRSA biofilm” value [1] was “effective; also recorded: very effective”, the “anaerobic cultures with no growth” value [2, 15] was 6 of 22 and the “subjects with no growth on aerobic culture” value [2, 15] was 7 of 22. For the same compound, the “anaerobic cultures with reduced colony growth” value ([2]; 1% PCA in water, of 22 cultures) was 15, the “aerobic cultures with reduced growth” value ([2]; 1% PCA in water, of 22 subjects) was 10 cultures and the “effectiveness as skin disinfectant, Phase 1” value ([2]; 20 minutes after application) was “partially effective”. For the same compound, the “most effective concentration for decreasing bacterial burden” value ([3]; of 50, 100 and 200 mM tested, 96 hours) was 50 mM, the “bacterial burden in the skin” value ([3]; topical in water, 50, 100 and 200 mM, at two hours and daily for four days, day five, none statistically significant) was “decreased the bacterial burden” and the “TGF-β level in skin tissue” value [4, 16] was “decreased”. For the same compound, the “local growth hormone level of TGF-Beta” value ([4]; 25 mM, site of the untreated skin wound (FIG. 11B)) was “increased”, the “EGF level in skin tissue” value [5, 16] was “decreased; also recorded: lowest” and the “local growth hormone level of EGF” value ([5]; 25 mM, site of the untreated skin wound (FIG. 11C)) was “increased”. The “IGF-1 level in skin tissue” value [6, 16] was “moderately elevated; also recorded: optimizes the IGF-1 production”, the “local growth hormone level of IGF-1” value ([6]; 25 mM, site of the untreated skin wound (FIG. 11A)) was “increased” and the “optimal dose to optimize local growth hormones” value ([6]; IGF-1, TGF-β and EGF together, rodent skin wound) was “Approximately 25 mM”. The “antibiotic properties (summary)” value [7] was “broad spectrum antibiotic”, the “overall effectiveness in the in vitro panel” value ([7]; 100 mM, carrier water, 18-24 hours for aerobes, 48 hours for anaerobes) was “effective against all bacteria tested” and the “removal of potential pathogens from skin” value ([8]; Phase IV solution: 20 grams of PCA, 91% isopropyl alcohol, 5 ml of essence of peppermint oil) was “effective in removing potential pathogens”. The “no growth cultures results after treatment, anaerobic” value ([8]; 20 minutes) was 4/12, the “no growth cultures results after treatment, Aerobic” value ([8]; 20 minutes, PCA in 91% isopropyl alcohol and essential oil of peppermint) was 12/12 and the “no growth cultures results after treatment, Aerobic” value ([8]; 60 minutes) was 7/12. The “no growth cultures results after treatment, anaerobic” value ([8]; 60 minutes) was 6/12, the “effectiveness against P. acnes (growth inhibition)” value [9] was “effective; also recorded: able to kill; also recorded: bactericidal” and the “effectiveness against C. difficile (growth inhibition)” value [10] was “effective”. The “P. acnes growth after treatment” value ([11]; culture #14, 20 minutes) was “no growth”, the “P. acnes growth after treatment” value ([11]; culture #19, 60 minutes) was “no growth” and the log reduction ([12]; after 30 minutes) was 3.3 log. The log reduction ([12]; after 60 minutes) was 2.2 log, the “reduction in the number colony forming units” value ([12]; 30% PCA spray, after 60 minutes) was 99.9% and the “effectiveness against S. aureus 6538” value [13] was “effective”. The “effectiveness against E. coli” value [14] was “effective”.
